Laboratory results published in patent USRE39591E1, “6-O-substituted ketolides having antibacterial activity” (Abbott Laboratories, priority 1996, dated 2007).
Values after ≈ are worked out from the molar mass of the structure shown.

System: up to 32 different microorganisms
Assay: in vitro antibacterial activity (MIC), agar dilution on Brain Heart Infusion (BHI) agar with Steers replicator
Type: cell-based
Conditions: unit assumed
Description: Representative compounds of the present invention were assayed in vitro for antibacterial activity as follows: Twelve petri dishes containing successive aqueous dilutions of the test compound mixed with 10 mL of sterilized Brain Heart Infusion (BHI) agar (Difco 0148-01-5) were prepared. Each plate was inoculated with 1:100 (or 1:10 for slow-growing strains, such as Micrococcus and Streptococcus) dilutions of up to 32 different microorganisms, using a Steers replicator block. The inoculated plates were incubated at 35°-37° C. for 20 to 24 hours. In addition, a control plate, using BHI agar containing no test compound, was prepared and incubated at the beginning and end of each test.
An additional plate containing a compound having known susceptibility patterns for the organisms being tested and belonging to the same antibiotic class as the test compound was also prepared and incubated as a further control, as well as to provide test-to-test comparability. Erythromycin A was used for this purpose.
After incubation, each plate was visually inspected. The minimum inhibitory concentration (MIC) was defined as the lowest concentration of drug yielding no growth, a slight haze, or sparsely isolated colonies on the inoculum spot as compared to the growth control.

Structure (SMILES)	MIC (organism code XX) [µg/mL]	MIC (organism code YY) [µg/mL]	MIC (organism code ZZ) [µg/mL]	MIC (organism code ZZA) [µg/mL]	MIC (organism code AA) [µg/mL]	MIC (organism code BB) [µg/mL]	MIC (organism code CC) [µg/mL]	MIC (organism code DD) [µg/mL]	MIC (organism code EE) [µg/mL]	MIC (organism code FF) [µg/mL]	MIC (organism code GG) [µg/mL]	MIC (organism code HH) [µg/mL]	MIC (organism code II) [µg/mL]	MIC (organism code JJ) [µg/mL]	MIC (organism code KK) [µg/mL]	MIC (organism code LL) [µg/mL]	MIC (organism code MM) [µg/mL]	MIC (organism code NN) [µg/mL]	MIC (organism code OO) [µg/mL]	MIC (organism code PP) [µg/mL]	further results
CCC1OC(=O)C(C)C(=O)C(C)C(OC2OC(C)CC(N(C)C)C2O)C(C)(OCC=Cc2cnc3ncccc3c2)CC(C)C(=O)C(C)C2NC(=O)OC12C (centres unmarked) [Example 202, R is —CH2CH═CH-(1,8-naphthyridin-3-yl)]	0.03 (≈ 0.0391 µM)	0.03 (≈ 0.0391 µM)	32 (≈ 41.7 µM)	2 (≈ 2.61 µM)	–	–	–	–	–	–	–	–	–	–	–	–	–	–	–	–	–
CCC1OC(=O)C(C)C(=O)C(C)C(OC2OC(C)CC(N(C)C)C2O)C(C)(OCC=Cc2cnc3ccc(NC(C)=O)cc3c2)CC(C)C(=O)C(C)C2NC(=O)OC12C (centres unmarked) [Example 203]	0.03 (≈ 0.0365 µM)	0.03 (≈ 0.0365 µM)	16 (≈ 19.4 µM)	2 (≈ 2.43 µM)	0.2 (≈ 0.243 µM)	0.39 (≈ 0.474 µM)	> 100	0.2 (≈ 0.243 µM)	0.2 (≈ 0.243 µM)	0.39 (≈ 0.474 µM)	> 100	0.2 (≈ 0.243 µM)	0.2 (≈ 0.243 µM)	≤ 0.005	0.01 (≈ 0.0122 µM)	0.01 (≈ 0.0122 µM)	1.56 (≈ 1.9 µM)	0.39 (≈ 0.474 µM)	0.02 (≈ 0.0243 µM)	0.39 (≈ 0.474 µM)	MIC (organism code QQ): 100 µg/mL (≈ 122 µM); MIC (organism code RR): 0.39 µg/mL (≈ 0.474 µM); MIC (organism code SS): 100 µg/mL (≈ 122 µM); MIC (organism code TT): > 100 µg/mL; MIC (organism code UU): 6.2 µg/mL (≈ 7.53 µM); MIC (organism code VV): 0.39 µg/mL (≈ 0.474 µM); MIC (organism code WW): 4 µg/mL (≈ 4.86 µM)
CCC1OC(=O)C(C)C(=O)C(C)C(OC2OC(C)CC(N(C)C)C2O)C(C)(OCC=Cc2ccc3[nH]c4ccccc4c3c2)CC(C)C(=O)C(C)C2NC(=O)OC12C (centres unmarked) [Example 204, R is —CH2CH═CH-(3-carbazolyl)]	0.06 (≈ 0.0746 µM)	0.06 (≈ 0.0746 µM)	8 (≈ 9.95 µM)	0.5 (≈ 0.622 µM)	0.1 (≈ 0.124 µM)	0.1 (≈ 0.124 µM)	> 100	0.1 (≈ 0.124 µM)	0.1 (≈ 0.124 µM)	0.1 (≈ 0.124 µM)	> 100	0.1 (≈ 0.124 µM)	0.05 (≈ 0.0622 µM)	0.01 (≈ 0.0124 µM)	0.01 (≈ 0.0124 µM)	0.01 (≈ 0.0124 µM)	3.1 (≈ 3.86 µM)	0.2 (≈ 0.249 µM)	0.02 (≈ 0.0249 µM)	0.1 (≈ 0.124 µM)	MIC (organism code QQ): > 100 µg/mL; MIC (organism code RR): 0.78 µg/mL (≈ 0.97 µM); MIC (organism code SS): > 100 µg/mL; MIC (organism code TT): > 100 µg/mL; MIC (organism code UU): 0.78 µg/mL (≈ 0.97 µM); MIC (organism code VV): 0.1 µg/mL (≈ 0.124 µM); MIC (organism code WW): 4 µg/mL (≈ 4.98 µM)
CCC1OC(=O)C(C)C(=O)C(C)C(OC2OC(C)CC(N(C)C)C2O)C(C)(OCC=Cc2ccc3[nH]cnc3c2)CC(C)C(=O)C(C)C2NC(=O)OC12C (centres unmarked) [Example 205, R is —CH2CH═CH-(5-benzimidazolyl)]	0.03 (≈ 0.0397 µM)	0.06 (≈ 0.0795 µM)	> 64	4 (≈ 5.3 µM)	–	–	–	–	–	–	–	–	–	–	–	–	–	–	–	–	–
CCC1OC(=O)C(C)C(=O)C(C)C(OC2OC(C)CC(N(C)C)C2O)C(C)(OCC=Cc2ccc3cc(O)c(C(=O)Nc4ccccc4OC)cc3c2)CC(C)C(=O)C(C)C2NC(=O)OC12C (centres unmarked) [Example 206, R is —CH2CH═CH-(3-hydroxy-2-(N-(2-methoxyphenyl)amido)-7-napthyl)]	0.5 (≈ 0.538 µM)	0.5 (≈ 0.538 µM)	> 128	4 (≈ 4.3 µM)	0.78 (≈ 0.839 µM)	0.39 (≈ 0.419 µM)	> 100	0.78 (≈ 0.839 µM)	0.78 (≈ 0.839 µM)	0.78 (≈ 0.839 µM)	> 100	0.78 (≈ 0.839 µM)	0.39 (≈ 0.419 µM)	0.1 (≈ 0.108 µM)	0.39 (≈ 0.419 µM)	0.39 (≈ 0.419 µM)	> 100	1.56 (≈ 1.68 µM)	0.2 (≈ 0.215 µM)	1.56 (≈ 1.68 µM)	MIC (organism code QQ): > 100 µg/mL; MIC (organism code RR): 25 µg/mL (≈ 26.9 µM); MIC (organism code SS): > 100 µg/mL; MIC (organism code TT): > 100 µg/mL; MIC (organism code UU): 3.1 µg/mL (≈ 3.33 µM); MIC (organism code VV): 3.1 µg/mL (≈ 3.33 µM); MIC (organism code WW): > 128 µg/mL
